Experimental data from patent US7135466B2 (Kirin Beer Kabushiki Kaisha, priority 1999, dated 2006).
Read-outs that look alike come from different tables or passages of the source.

Target: T1, PDGF-Ra (Homo sapiens, UniProt P16234)
T1 construct: host or cells: G-292 human osteosarcoma cells
Assay: Inhibitory activity against PDGF-Ra phosphorylation by PDGF-AA stimulation using G292
Type: cell-based
Conditions: for IC50: > means inhibition at indicated concentration not more than 50%, < and << not less than 50%, read-out: PDGF (E) IC50; for inhibition at 0.1 µM: G292, figure within parentheses in >100( ), at 100 nM, read-out: PDGF (E) inhibition (%) at 100 nM
Protocol: Measurement of Inhibitory Activity Against PDGF-Ra Phosphorylation by PDGF-AA Stimulation Using G292
G-292 human osteosarcoma cells (Dainippon Pharmaceutical Co. Ltd.) were cultured in a DMEM medium (Dainippon Pharmaceutical Co. Ltd.) containing 10% FBS within an incubator containing 5% carbon dioxide until 80% confluent, and the cells were planted at 3×10^4 cells per well in 96-well flat-bottom plates in the same medium containing 0.1% FBS. After cultivation at 37° C. overnight, a solution of a test compound in dimethyl sulfoxide was added to each well, and a reaction was allowed to proceed at 37° C. for one hr.
After the reaction of the test compound, PDGF-AA (Upstate) was added to 50 ng/ml, and the cells were stimulated at 37° C. for 5 min. Thereafter, the cells were solubilized and shaken at room temperature for 20 min.
This solubilized cell solution was transferred to a 96-well plate coated with aniti-phosphotyrosine antibody PY-20, and a reaction was allowed to proceed at 4° C. overnight. Anti-PDGF-Ra (c-20) (Santa Cruz) was added as a primary antibody, and a reaction was allowed to proceed for one hr. GAR (Anti-rabbit Ig, horseradish peroxidase, Amersham) was then added as a secondary antibody, and a reaction was allowed to proceed for one hr. Color development was carried out using a color development kit for peroxidase (Sumitomo Bakelite Co., Ltd.), and the absorbance was measured at 450 nm.

T1 sequence (P16234 24-1089): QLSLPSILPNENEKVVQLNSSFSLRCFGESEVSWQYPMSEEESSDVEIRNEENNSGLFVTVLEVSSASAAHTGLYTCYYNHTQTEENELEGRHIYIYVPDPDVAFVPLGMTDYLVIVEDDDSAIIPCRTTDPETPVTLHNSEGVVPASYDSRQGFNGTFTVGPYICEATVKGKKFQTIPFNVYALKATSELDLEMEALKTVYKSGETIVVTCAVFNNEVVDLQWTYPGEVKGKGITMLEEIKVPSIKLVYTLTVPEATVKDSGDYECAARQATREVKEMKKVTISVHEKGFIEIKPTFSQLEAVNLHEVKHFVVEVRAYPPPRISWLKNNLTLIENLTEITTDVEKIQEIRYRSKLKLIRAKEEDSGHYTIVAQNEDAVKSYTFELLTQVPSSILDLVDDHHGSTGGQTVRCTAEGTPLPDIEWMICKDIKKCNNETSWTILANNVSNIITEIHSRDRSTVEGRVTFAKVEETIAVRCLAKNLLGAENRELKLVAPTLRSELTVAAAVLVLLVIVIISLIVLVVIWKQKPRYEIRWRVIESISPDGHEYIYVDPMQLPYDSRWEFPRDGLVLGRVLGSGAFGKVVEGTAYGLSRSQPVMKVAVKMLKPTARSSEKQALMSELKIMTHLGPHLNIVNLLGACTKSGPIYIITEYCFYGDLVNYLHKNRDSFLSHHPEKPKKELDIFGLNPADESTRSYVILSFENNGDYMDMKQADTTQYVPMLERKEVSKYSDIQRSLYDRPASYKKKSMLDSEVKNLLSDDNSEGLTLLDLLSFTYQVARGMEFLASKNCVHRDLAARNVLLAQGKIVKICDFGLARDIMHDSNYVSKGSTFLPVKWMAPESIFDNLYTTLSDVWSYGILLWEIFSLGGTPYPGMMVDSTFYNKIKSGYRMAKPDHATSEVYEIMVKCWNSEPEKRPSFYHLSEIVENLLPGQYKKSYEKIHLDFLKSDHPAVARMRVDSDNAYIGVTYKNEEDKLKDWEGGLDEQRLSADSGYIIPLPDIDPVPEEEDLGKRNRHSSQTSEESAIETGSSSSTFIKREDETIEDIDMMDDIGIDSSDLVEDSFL

Compound	IC50 [nM]	IC50 (Pharmacological Test Example 1) [nM]	inhibition at 0.1 µM [%]
COc1cc2nccc(Oc3ccc(NC(=S)NC(=O)CCc4ccccc4C)cc3Cl)c2cc1OC [Example 732, N-{3-Chloro-4-[(6,7-dimethoxy-4-quinolyl)oxy]phenyl}-N′-[3-(2-methylphenyl)propanoyl]thiourea]	48		
CCCC(OC(=O)Nc1cc(C)c(Oc2ccnc3cc(OC)c(OC)cc23)cc1C)c1ccccc1 (stereo not drawn) [Example 186, 1-Phenylbutyl N-{4-[(6,7-dimethoxy-4-quinolyl)oxy]-2,5-dimethylphenyl}carbamate]		63	
COc1cc2nccc(Oc3cc(C)c(NC(=O)OCCCN4CCCCC4)cc3C)c2cc1OC [Example 414, 3-Piperidinopropyl N-{4-[(6,7-dimethoxy-4-quinolyl)oxy]-2,5-dimethylphenyl}carbamate]	> 100		27
COc1cc2nccc(Oc3cc(C)c(NC(=O)OC(C#N)c4ccccc4)cc3C)c2cc1OC (stereo not drawn) [Example 454, Cyano(phenyl)methyl N-{4-[(6,7-dimethoxy-4-quinolyl)oxy]-2,5-dimethylphenyl}carbamate]	> 100		23
COc1cc2nccc(Oc3ccc(NC(=S)NC(=O)C(OC)c4ccccc4)cc3Cl)c2cc1OC (stereo not drawn) [Example 762, N-{3-Chloro-4-[(6,7-dimethoxy-4-quinolyl)oxy]phenyl}-N′-(2-methoxy-2-phenylacetyl)thiourea]	> 100		
COc1cc2nccc(Oc3cc(C)c(NC(=O)OCC4CC4)cc3C)c2cc1OC [Example 381, Cyclopropylmethyl N-{4-[(6,7-dimethoxy-4-quinolyl)oxy]-2,5-dimethylphenyl}carbamate]		66	
COc1ccc(C(=O)NC(=S)Nc2ccc(Oc3ccnc4cc(OC)c(OC)cc34)cc2Cl)c(OC)c1 [Example 1176, N-{2-Chloro-4-[(6,7-dimethoxy-4-quinolyl)oxy]phenyl}-N′-(2,4-dimethoxybenzoyl)thiourea]	> 100		
CCN(C(=O)OCc1ccccc1OC)c1ccc(Oc2ncnc3cc(OC)c(OC)cc23)cc1Cl [Example 485, 2-Methoxybenzyl N-{2-chloro-4-[(6,7-dimethoxy-4-quinazolinyl)oxy]phenyl}-N-ethylcarbamate]	> 100		35
COc1cc2nccc(Oc3cc(C)c(NC(=O)OCCN4C(=O)c5ccccc5C4=O)cc3C)c2cc1OC [Example 419, 2-(1,3-Dioxo-2,3-dihydro-1H-2-isoindolyl)ethyl N-{4-[(6,7-dimethoxy-4-quinolyl)oxy]-2,5-dimethylphenyl}carbamate]	> 100		47
COc1cc2nccc(Oc3cc(C)c(NC(=S)NCCCN4CCCCC4C)cc3C)c2cc1OC (stereo not drawn) [Example 554, N-{4-[(6,7-Dimethoxy-4-quinolyl)oxy]-2,5-dimethylphenyl}-N′-[3-(2-methylpiperidinyl)propyl]thiourea]	> 100		14
COc1cc2nccc(Oc3ccc(NC(=O)OCCC4CCCCC4)cc3)c2cc1OC [Example 353, 2-Cyclohexylethyl N-{4-[(6,7-dimethoxy-4-quinolyl)oxy]phenyl}carbamate]		< 10	
COc1cc2nccc(Oc3ccc(NC(=S)NC(=O)N(CCCl)CCCl)cc3Cl)c2cc1OC [Example 1049, N-{3-Chloro-4-[(6,7-dimethoxy-4-quinolyl)oxy]phenyl}-[{[di(2-chloroethyl)amino]carbonyl}amino]methanethioamide]	44		
CCCC(OC(=O)Nc1ccc(Oc2ccnc3cc(OC)c(OC)cc23)c(C)c1C)c1ccccc1 (stereo not drawn) [Example 185, 1-Phenylbutyl N-{4-[(6,7-dimethoxy-4-quinolyl)oxy]-2,3-dimethylphenyl}carbamate]		46	
CCN(C(=O)OCc1ccccc1C)c1ccc(Oc2ncnc3cc(OC)c(OC)cc23)cc1Cl [Example 486, 2-Methylbenzyl N-{2-chloro-4-[(6,7-dimethoxy-4-quinazolinyl)oxy]phenyl}-N-ethylcarbamate]	> 100		36
COc1cc2nccc(Oc3ccc(NC(=S)NC(=O)Cc4ccccc4[N+](=O)[O-])cc3Cl)c2cc1OC [Example 736, N-{3-Chloro-4-[(6,7-dimethoxy-4-quinolyl)oxy]phenyl}-N′-[2-(2-nitrophenyl)acetyl]thiourea]	72		
CCN(C(=S)NC(=O)CCc1ccccc1OC)c1ccc(Oc2ccnc3cc(OC)c(OC)cc23)cc1 [Example 1142, N-{4-[(6,7-Dimethoxy-4-quinolyl)oxy]phenyl}-N-ethyl-N′-[3-(2-methoxyphenyl)propanoyl]thiourea]	80		

Compound	IC50 [nM]	IC50 (Pharmacological Test Example 1) [nM]	inhibition at 0.1 µM [%]
COc1cc2ncnc(Oc3ccc(NC(=S)NC(=O)c4c(Cl)cccc4Cl)cc3)c2cc1OC [Example 1162, N-(2,6-Dichlorobenzoyl)-N′-{4-[(6,7-dimethoxy-4-quinazolinyl)oxy]phenyl}thiourea]	13		
COc1cc2nccc(Oc3cc(C)c(NC(=O)Oc4ccc(C#N)cc4)cc3C)c2cc1OC [Example 460, 4-Cyanophenyl N-{4-[(6,7-dimethoxy-4-quinolyl)oxy]-2,5-dimethylphenyl}carbamate]	> 100		15
CCC(Oc1ccccc1)C(=O)NC(=S)Nc1ccc(Oc2ccnc3cc(OC)c(OC)cc23)c(Cl)c1 (stereo not drawn) [Example 742, N-{3-Chloro-4-[(6,7-dimethoxy-4-quinolyl)oxy]phenyl}-N′-(2-phenoxybutanoyl)thiourea]	92		
COc1cc2ncnc(Oc3ccc(NC(=S)NC(=O)C(C)(C)C)cc3)c2cc1OC [Example 1188, N-{4-[(6,7-Dimethoxy-4-quinazolinyl)oxy]phenyl}-N′-(2,2-dimethylpropanoyl)thiourea]	76		
CCC(Oc1ccccc1)C(=O)NC(=S)Nc1ccc(Oc2ccnc3cc(OC)c(OC)cc23)cc1 (stereo not drawn) [Example 741, N-{4-[(6,7-Dimethoxy-4-quinolyl)oxy]phenyl}-N′-(2-phenoxybutanoyl)thiourea]	49		
COc1cc2nccc(Oc3ccc(NC(=S)NC(=O)c4cc(Cl)cc(Cl)c4)c(Cl)c3)c2cc1OC [Example 1159, N-{2-Chloro-4-[(6,7-dimethoxy-4-quinolyl)oxy]phenyl}-N′-(3,5-dichlorobenzoyl)thiourea]	> 100		
COc1cc2nccc(Oc3cc(C)c(NC(=O)OCN4C(=O)c5ccccc5C4=O)cc3C)c2cc1OC [Example 417, (1,3-Dioxo-2,3-dihydro-1H-2-isoindolyl)methyl N-{4-[(6,7-dimethoxy-4-quinolyl)oxy]-2,5-dimethylphenyl}carbamate]	> 100		42
COc1cc2nccc(Oc3ccc(NC(=O)OC(C)c4cccc(OC(F)(F)F)c4)cc3)c2cc1OC (stereo not drawn) [Example 180, 1-[3-(Trifluoromethoxy)phenyl]ethyl N-{4-[(6,7-dimethoxy-4-quinolyl)oxy]phenol}carbamate]		63	
CCCCCOc1ccc(C(=O)NC(=S)Nc2ccc(Oc3ccnc4cc(OC)c(OC)cc34)c(Cl)c2)cc1 [Example 754, N-{3-Chloro-4-[(6,7-dimethoxy-4-quinolyl)oxy]phenyl}-N′-[4-(pentyloxy)benzoyl]thiourea]	> 100		7
CCCC(CCN(CC)CC)OC(=O)Nc1ccc(Oc2ccnc3cc(OC)c(OC)cc23)cc1 (stereo not drawn) [Example 441, 1-[2-(Diethylamino)ethyl]butyl N-{4-[(6,7-dimethoxy-4-quinolyl)oxy]phenyl}carbamate]	70		
COc1cc2ncnc(Oc3ccc(NC(=O)OC(C)c4ccccc4Br)c(Cl)c3)c2cc1OC (stereo not drawn) [Example 116, 1-(2-Bromophenyl)ethyl N-{2-chloro-4-[(6,7-dimethoxy-4-quinazolinyl)oxy]phenyl}carbamate]		31	
COc1cc2nccc(Oc3ccc(NC(=S)NC(=O)c4cccc(F)c4)c(Cl)c3)c2cc1OC [Example 1163, N-{2-Chloro-4-[(6,7-dimethoxy-4-quinolyl)oxy]phenyl}-N′-(3-fluorobenzoyl)thiourea]	> 100		
CCOC(=O)CCC(=O)NC(=S)Nc1ccc(Oc2ncnc3cc(OC)c(OC)cc23)cc1 [Example 1178, Ethyl 4-[({4-[(6,7-dimethoxy-4-quinazolinyl)oxy]anilino}carbothioyl)amino]-4-oxobutanoate]	78		
COc1cc2nccc(Oc3ccc(NC(=O)NC4CCN(CC5CCCCC5)C4)cc3)c2cc1OC (stereo not drawn) [Example 585, N-[1-(Cyclohexylmethyl)tetrahydro-1H-3-pyrrolyl]-N′-{4-[(6,7-dimethoxy-4-quinolyl)oxy]phenyl}urea]	> 100		32
COc1cc2ncnc(Oc3ccc(NC(=O)OCCCSc4ccc(C(C)(C)C)cc4)cc3)c2cc1OC [Example 75, 3-{[4-(Tert-butyl)phenyl]sulfanyl}propyl N-{4-[(6,7-dimethoxy-4-quinazolinyl)oxy]phenyl}carbamate]		25	
COc1cc2nccc(Oc3cc(C)c(NC(=S)NN4CCCCC4)cc3C)c2cc1OC [Example 522, N-{4-[(6,7-Dimethoxy-4-quinolyl)oxy]-2,5-dimethylphenyl}-N′-(1-piperidinyl)thiourea]	> 100		
